The target of this experiment is T1, human RXFP1 (Homo sapiens, UniProt Q9HBX9).
T1 construct: expressed in transfected cells
T1 sequence (Q9HBX9 1-757): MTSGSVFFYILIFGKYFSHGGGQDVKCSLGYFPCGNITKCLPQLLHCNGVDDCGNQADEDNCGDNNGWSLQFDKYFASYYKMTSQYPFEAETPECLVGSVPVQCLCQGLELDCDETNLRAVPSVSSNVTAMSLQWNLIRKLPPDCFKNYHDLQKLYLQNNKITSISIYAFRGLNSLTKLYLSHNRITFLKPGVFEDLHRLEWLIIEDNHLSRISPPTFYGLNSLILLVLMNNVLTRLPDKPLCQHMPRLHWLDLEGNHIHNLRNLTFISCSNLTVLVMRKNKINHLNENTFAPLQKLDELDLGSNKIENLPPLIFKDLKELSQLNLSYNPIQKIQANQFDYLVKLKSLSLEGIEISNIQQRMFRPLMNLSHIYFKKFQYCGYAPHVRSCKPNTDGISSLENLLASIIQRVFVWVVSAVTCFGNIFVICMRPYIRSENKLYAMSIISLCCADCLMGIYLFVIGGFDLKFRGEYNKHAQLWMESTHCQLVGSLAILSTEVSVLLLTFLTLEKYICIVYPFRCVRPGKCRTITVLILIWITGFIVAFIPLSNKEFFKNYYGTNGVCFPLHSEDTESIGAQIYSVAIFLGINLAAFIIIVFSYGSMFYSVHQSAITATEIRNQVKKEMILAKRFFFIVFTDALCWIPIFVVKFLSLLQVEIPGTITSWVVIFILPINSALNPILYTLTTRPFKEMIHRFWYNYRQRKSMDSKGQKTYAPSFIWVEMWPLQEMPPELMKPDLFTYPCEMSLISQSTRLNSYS
The experiment can be described thus: RXFP1 cAMP assay (hRXFP1 HEK293 cAMP assay, HTRF). Type of experiment: cell-based. As to conditions: HEK293 cells stably expressing human RXFP1, 30 min at room temperature, read-out: cAMP hRXFP1 HEK293 Assay EC50. Put shortly:
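HEK293 cells stably expressing human RXFP1 (1500 cells/well) in HBSS/20 mM HEPES/0.05% BSA/0.5 mM IBMX. Compounds were tested at 0.010 nM–50 μM final (2% DMSO) for 30 min at room temperature. cAMP was measured by HTRF and values derived by 4-parameter logistic fit.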

Structures are written as SMILES.

As to `COc1cc(C(=O)N[C@H]2[C@@H](C(=O)Nc3ccc(F)c(C(F)(F)F)c3)[C@H]3CC[C@@H]2/C3=C\C2CC2)cc(C2=NOC3COCC23)c1` (single isomer, unassigned) [compound 602], the EC50 amounted to 110 nM.
For `COc1ncc(-c2ccc(OC)c(C(=O)N[C@H]3[C@@H](C(=O)Nc4ccc(F)c(C(F)(F)F)c4)[C@H]4CC[C@@H]3C4=C(C)C)c2)cn1` [compound 88], the EC50 was found to be 190 nM.
Regarding `COc1cc(F)c(F)cc1C(=O)N[C@@H]1C2CCC(/C2=C/c2ccccc2F)[C@@H]1C(=O)Nc1ccc(F)c(C(F)(F)F)c1` (some centres unmarked) [compound 54], the EC50 was determined as 160 nM.
Take `CC[C@@H](NC(=O)[C@@H]1[C@H](NC(=O)c2cc(C3=NOC4COCC34)ccc2OC)[C@@H]2CC[C@H]1/C2=C/C1CC1)C1CCC1` (some centres unmarked) [Example 578]: the half-maximal effective concentration (EC50) stood at 70.8 nM.
The value for `COc1ccc(C2=NOC3CC(C(N)=O)CC23)cc1C(=O)N[C@H]1[C@@H](C(=O)NCC(C)(C)C)[C@H]2CC[C@@H]1/C2=C\C1CC1` (some centres unmarked) [compound 516] was 17.6 nM; that for `COc1ccc([C@@]2(O)CO[C@@H]3[C@@H](O)CO[C@@H]32)cc1C(=O)N[C@H]1[C@@H](C(=O)Nc2ccc(F)c(C(F)(F)F)c2)[C@H]2CC[C@@H]1/C2=C\C(F)(F)F` [compound 713] was 1670 nM.
For `COc1ccc(-c2cc(C(CO)NC(C)=O)ccc2F)cc1C(=O)N[C@@H]1C2CCC(/C2=C/C2CC2)[C@@H]1C(=O)Nc1ccc(F)c(C(F)(F)F)c1` (some centres unmarked) [Example 172], the EC50 is 5 nM.
Regarding `COc1ccc(C2=NOC3CN(CCO)CC23)cc1C(=O)N[C@H]1[C@@H](C(=O)Nc2ccc(F)c(C(F)(F)F)c2)[C@H]2CC[C@@H]1/C2=C\C1CC1` (single isomer, unassigned) [compound 691], the EC50 was 735 nM.
The value for `COc1cc(F)c(F)cc1C(=O)N[C@@H]1C2CCC(/C2=C/c2ccc3ccccc3c2)[C@@H]1C(=O)Nc1ccc(F)c(C(F)(F)F)c1` (some centres unmarked) [compound 18] was 630 nM; that for `COCCNC(=O)c1ccc(-c2ccc(OC)c(C(=O)N[C@@H]3C4CCC(/C4=C/c4ccccc4)[C@@H]3C(=O)Nc3ccc(F)c(C(F)(F)F)c3)c2)c(F)c1` (some centres unmarked) [compound 197] was 51 nM.
With `COc1ccc(N2CCCC2=O)cc1C(=O)N[C@H]1[C@@H](C(=O)Nc2ccc(F)c(C(F)(F)F)c2)[C@H]2CC[C@@H]1/C2=C\C1CC1` [compound 636], the EC50 was 196 nM.
`CCOC(=O)/C=C1\C2CCC1[C@H](C(=O)Nc1ccc(F)c(C(F)(F)F)c1)[C@@H]2NC(=O)c1cc(F)c(F)cc1OC` (some centres unmarked) [compound 7]: the EC50 came out at 270 nM.
Regarding `COc1ccc(-c2cc(C(OC(=O)Nc3ccccc3)C(F)F)ccc2F)cc1C(=O)N[C@H]1[C@@H](C(=O)Nc2ccc(F)c(C(F)(F)F)c2)[C@H]2CC[C@@H]1/C2=C\C1CC1` (stereo partly drawn) [Example 233, 1-(3′-(((1R,2R,3S,4R,Z)-7-(cyclopropylmethylene)-3-((4-fluoro-3-(trifluoromethyl)phenyl)carbamoyl)bicyclo[2.2.1]heptan-2-yl)carbamoyl)-6-fluoro-4′-methoxy-[1,1′-biphenyl]-3-yl)-2,2-difluoroethyl phenylcarbamate], the concentration for a half-maximal effect (EC50) turned out to be 2 nM.
Take `COc1ccc(C2=NOC3COCC23)cc1C(=O)N[C@H]1[C@@H](C(=O)NCc2c(C)cccc2C)[C@H]2CC[C@@H]1/C2=C\C1CC1` (some centres unmarked) [compound 540]: the concentration giving a half-maximal response (EC50) is 29.4 nM.
In the case of `COc1ccc(C2=NOC3CC(CO)CC23)cc1C(=O)N[C@@H]1C2CCC(/C2=C/C2CC2)[C@@H]1C(=O)Nc1ccc(F)c(C(F)(F)F)c1` (single isomer, unassigned) [compound 432], the 50% effective concentration (EC50) turned out to be 2 nM.
`COc1ccc(C2=NOC3COCC23)cc1C(=O)N[C@H]1[C@@H](C(=O)NC(C)(C)C#N)[C@H]2CC[C@@H]1/C2=C\C1CC1` (some centres unmarked) [compound 633]: the EC50 came out at 190 nM.
For the molecule `COc1ccc(C2=NO[C@@H]3[C@@H](O)CCN23)cc1C(=O)N[C@H]1[C@@H](C(=O)Nc2ccc(F)c(C(F)(F)F)c2)[C@H]2CC[C@@H]1/C2=C\C1CC1` [compound 857], the 50% effective concentration (EC50) was 5 nM.
The value for `COc1ccc(-c2cc(C(OC(=O)Nc3ccccc3F)C(F)(F)F)ccc2F)cc1C(=O)N[C@@H]1C2CCC(/C2=C/C2CC2)[C@@H]1C(=O)Nc1ccc(F)c(C(F)(F)F)c1` (some centres unmarked) [compound 223] was 2 nM.
For `COc1ccc(-c2cc(C3=NOC4CC(CO)CC34)ccc2F)cc1C(=O)N[C@H]1[C@@H](C(=O)Nc2ccc(F)c(C(F)(F)F)c2)[C@H]2CC[C@@H]1/C2=C\C1CCCC1` (some centres unmarked) [compound 951], the EC50 was 1 nM.
For the molecule `COc1ccc(C2CC3CNS(=O)(=O)C32)cc1C(=O)N[C@H]1[C@@H](C(=O)Nc2ccc(F)c(C(F)(F)F)c2)[C@H]2CC[C@@H]1/C2=C\C1CC1` (single isomer, unassigned) [compound 733], the EC50 turned out to be 6.3 nM.
As to `COc1cc(F)c(F)cc1C(=O)N[C@@H]1C2CCC(/C2=C/c2cccc(F)c2)[C@@H]1C(=O)Nc1ccc(F)c(C(F)(F)F)c1` (some centres unmarked) [compound 30], the EC50 is 55 nM.
The value for `COc1ccc(-c2cc([C@H](OC(=O)NC3CCC3)C(F)(F)F)ccc2F)cc1C(=O)N[C@@H]1C2CCC(/C2=C/C2CC(F)(F)C2)[C@@H]1C(=O)Nc1ccc(F)c(C(F)(F)F)c1` (some centres unmarked) [compound 359] was 2 nM.
The value for `COc1ccc(-c2cc(C(OC(=O)NC3CCC3)C(F)(F)F)ccc2F)cc1C(=O)N[C@@H]1C2CCC(/C2=C/C2CC2)[C@@H]1C(=O)Nc1ccc(F)c(C(F)(F)F)c1` (some centres unmarked) [compound 221] was 26 nM; that for `COc1ccc(C2=NOC(C3(O)CCCCC3)C2)cc1C(=O)N[C@H]1[C@@H](C(=O)Nc2ccc(F)c(C(F)(F)F)c2)[C@H]2CC[C@@H]1/C2=C\C1CC1` (single isomer, unassigned) [compound 615] was 139 nM; that for `COc1ccc(-c2cc(C(OC(=O)NC3CCC3)C(F)F)ccc2F)cc1C(=O)N[C@@H]1C2CCC(/C2=C/C2CC2)[C@@H]1C(=O)Nc1ccc(F)c(C(F)(F)F)c1` (some centres unmarked) [compound 231] was 1 nM.
`COc1ccc(-c2ccc(C(=O)O)cc2F)cc1C(=O)N[C@H]1[C@@H](C(=O)Nc2ccc(F)c(C(F)(F)F)c2)[C@H]2CC[C@@H]1C2=C(C)C` [compound 84]: the EC50 worked out at 110 nM.
On to `COc1ccc(-c2cc(C(=O)O)ccc2F)cc1C(=O)N[C@@H]1C2CCC(/C2=C/c2cncnc2)[C@@H]1C(=O)Nc1ccc(F)c(C(F)(F)F)c1` (some centres unmarked) [compound 129], for which the EC50 is 60 nM.
Turning to `COc1ccc(C2=NC[C@@H]3CCCN23)cc1C(=O)N[C@H]1[C@@H](C(=O)Nc2ccc(F)c(C(F)(F)F)c2)[C@H]2CC[C@@H]1/C2=C\C1CC1` [compound 708], the concentration for a half-maximal effect (EC50) was found to be 1360 nM.
The value for `COc1ccc(-c2cc(C(=O)O)ccc2F)cc1C(=O)N[C@@H]1C2CCC(/C2=C/c2cn(C)nn2)[C@@H]1C(=O)Nc1ccc(F)c(C(F)(F)F)c1` (some centres unmarked) [compound 327] was 2040 nM; that for `COc1ccc(C2=NOC3COCC23)cc1C(=O)N[C@H]1[C@@H](C(=O)NCc2ccc(Cl)cc2Cl)[C@H]2CC[C@@H]1/C2=C\C1CC1` (some centres unmarked) [compound 646] was 240 nM; that for `COc1ccc(-c2cc(C(=O)O)ccc2F)cc1C(=O)N[C@@H]1C2CCC(/C2=C/C2CC2)[C@@H]1C(=O)NCc1ccccc1` (some centres unmarked) [compound 260] was 2970 nM.
In the case of `COc1ccc(C2=NOC(C(=O)O)C2)cc1C(=O)N[C@@H]1C2CCC(/C2=C/C(F)(F)F)[C@@H]1C(=O)Nc1ccc(F)c(C(F)(F)F)c1` (some centres unmarked) [compound 389], the EC50 was 54 nM.
Regarding `COc1cc(F)c(F)cc1C(=O)N[C@@H]1C2CCC(/C2=C/c2cccc(C(F)(F)F)c2)[C@@H]1C(=O)Nc1ccc(F)c(C(F)(F)F)c1` (some centres unmarked) [compound 25], the EC50 was found to be 200 nM.
Take `COc1ccc(/C=C2\C3CCC2[C@H](C(=O)Nc2ccc(F)c(C(F)(F)F)c2)[C@@H]3NC(=O)c2cc(F)c(F)cc2OC)cc1` (some centres unmarked) [compound 20]: the EC50 was 940 nM.
For the molecule `COc1c(F)cc(C2=NOC3CC(O)(C(F)(F)F)CC23)cc1C(=O)N[C@H]1[C@@H](C(=O)N[C@H](C)C2(C)CC2)[C@H]2CC[C@@H]1/C2=C\c1cnc(C(F)(F)F)s1` (some centres unmarked) [compound 917], the EC50 amounted to 1.3 nM.
Turning to `COc1ccc(C2=NO[C@@H]3CC[C@H](O)[C@H]23)cc1C(=O)N[C@H]1[C@@H](C(=O)Nc2ccc(F)c(C(F)(F)F)c2)[C@H]2CC[C@@H]1/C2=C\C1CC1` (single isomer, unassigned) [compound 484], the EC50 was 7.4 nM.
To `COc1ccc(-c2cc(C3=NOC4CC(CO)CC34)ccc2F)cc1C(=O)N[C@H]1[C@@H](C(=O)Nc2ccc(F)c(C(F)(F)F)c2)[C@H]2CC[C@@H]1/C2=C\C1CCCC1` (some centres unmarked) [compound 952] belongs 1.5 nM; to `COc1cc(F)c(F)cc1C(=O)N[C@@H]1C2CCC(/C2=C/c2ccccn2)[C@@H]1C(=O)Nc1ccc(F)c(C(F)(F)F)c1` (some centres unmarked) [compound 137], 480 nM.

Values taken from US20250221966A1, “RXFP1 AGONISTS” (BRISTOL-MYERS SQUIBB COMPANY, priority 2021, published 2025).
